Like-named read-outs stand apart in the source and are kept apart here. Each block holds one molecule with its values, some of them ahead of it.
Legend:
PAH = biological target: T1, PAH (Rattus norvegicus, UniProt P04176); settings: cited from earlier work
T1 sequence (P04176 1-453): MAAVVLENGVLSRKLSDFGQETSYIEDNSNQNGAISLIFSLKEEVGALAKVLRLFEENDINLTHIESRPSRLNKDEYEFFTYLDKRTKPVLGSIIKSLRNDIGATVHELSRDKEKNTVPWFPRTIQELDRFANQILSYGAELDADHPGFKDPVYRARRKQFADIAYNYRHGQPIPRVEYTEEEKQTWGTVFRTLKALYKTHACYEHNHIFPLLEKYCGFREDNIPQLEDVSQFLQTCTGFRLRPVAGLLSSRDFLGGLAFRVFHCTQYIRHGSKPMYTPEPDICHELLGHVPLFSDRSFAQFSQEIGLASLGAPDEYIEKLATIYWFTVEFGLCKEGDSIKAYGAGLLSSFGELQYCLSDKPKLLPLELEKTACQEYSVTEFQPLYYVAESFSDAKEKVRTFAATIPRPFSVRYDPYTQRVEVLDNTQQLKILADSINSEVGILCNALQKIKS

rat PAH [1] = biological target: T2, rat PAH (Rattus norvegicus, UniProt P04176); experiment: Ion exchange chromatography of rat PAH (HiTrap Q, KCl gradient); settings: 1 mM Phe in the elution buffer, 30 mM Tris-HCl, KCl gradient (FIG. 7E)
T2 construct: expression vectors for full length untagged rat and human PAH from Prof; P. Fitzpatrick; made in house
T2 sequence (P04176 1-453): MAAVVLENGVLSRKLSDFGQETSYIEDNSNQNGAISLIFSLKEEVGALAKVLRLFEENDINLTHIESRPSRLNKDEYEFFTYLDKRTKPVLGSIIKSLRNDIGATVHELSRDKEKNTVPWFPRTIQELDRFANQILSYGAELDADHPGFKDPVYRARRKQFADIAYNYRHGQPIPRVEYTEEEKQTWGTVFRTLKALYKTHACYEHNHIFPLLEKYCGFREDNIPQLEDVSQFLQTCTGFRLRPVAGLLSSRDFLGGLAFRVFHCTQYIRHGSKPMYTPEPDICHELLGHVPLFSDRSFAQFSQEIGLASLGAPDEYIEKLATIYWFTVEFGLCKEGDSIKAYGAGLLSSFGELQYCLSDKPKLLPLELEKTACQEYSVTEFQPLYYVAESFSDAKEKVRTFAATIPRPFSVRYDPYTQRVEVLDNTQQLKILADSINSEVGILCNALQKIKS
Procedure: (§1) FIG. 7 represents preliminary results on purified mammalian PAH. […] Full length human PAH, cleaved from an N-terminal MBP fusion construct, runs at a dimer:tetramer ratio of ˜2:1 on a calibrated Superdex-200 column. With 1 mM Phe added to the running buffer, this ratio is shifted to ˜1:1. Buffers contain 125 mM KCl, which is known to stabilize the tetramer. FIG. 7B represents preliminary kinetic studies on purified rat PAH, monitoring tyrosine fluorescence, showing “order of addition” effects at 300 μM Phe and 75 μM BH4. […] FIG. 7E is a full length rat PAH ([…]), run on a 1 ml HiTrap Q column in 30 mM Tris-HCl with a KCl gradient (B=400 mM KCl). […] FIG. 7F is native PhastGel Western blot showing the effects of ligands on the rat PAH quaternary structure equilibrium (overnight, RT, ˜1 mg/ml). Lane 1—as purified; Lane 2—1 mM Phe; Lane 3—50 μM Phe; Lane 4—75 μM BH4; Lane 5, 50 μPhe+75 μM BH4.
(§2) With regard to the oligomeric equilibrium, rat PAH (in 15% glycerol) is found to be predominantly tetrameric by both native PAGE and SEC (FIGS. 7C & 7D). […] Coupled with the SEC results in FIG. 7D, this illustrates that IEC can be used to separate two tetramers, 4mer and 4mer*.

rat PAH [2] = biological target: T2, rat PAH; experiment: SEC of purified rat PAH (Superdex 200); settings: Phe in running buffer (FIG. 7D)
Procedure: as §1, §2

rat PAH [3] = biological target: T2, rat PAH; experiment: Native PAGE (PhastGel Western blot) of rat PAH quaternary structure equilibrium; settings: ~1 mg/ml rat PAH, overnight, RT; 1 mM or 50 μM Phe, 75 μM BH4
Procedure: as §1, §2

[4] = biological target: the molecule itself; experiment: SEC on calibrated Superdex-200, buffer with 125 mM KCl and 1 mM Phe; self-association of PAH subunits
Procedure: as §1

[5] = biological target: the molecule itself; experiment: SEC on calibrated Superdex-200, buffer with 125 mM KCl, no Phe; self-association of PAH subunits
Procedure: as §1

[6] = biological target: the molecule itself; experiment: SEC on Superdex 200 (FIG. 7D); self-association

Molecule: C[C@H](O)[C@H](O)[C@H]1CNc2nc(N)[nH]c(=O)c2N1 [BH4, tetrahydrobiopterin]
Kd (PAH; high-activity forms of PAH, read-out: Kd, binding to the high-activity forms of PAH): ~14 µM
Kd (PAH; low-activity form(s) of PAH, read-out: Kd, binding to the low-activity form(s) of PAH): ~0.1 µM

effect on IEC elution profile (rat PAH [1]): dramatically alters the elution profile
effect on tetramer predominance by SEC (rat PAH [2]): not altered
Molecule: N[C@@H](Cc1ccccc1)C(=O)O [Phe, phenylalanine]
effect on distribution of PAH quaternary structure isoforms by native PAGE (rat PAH [3]): alters the distribution of PAH quaternary structure isoforms

B1: Full length human phenylalanine hydroxylase (PAH), cleaved from an N-terminal MBP fusion construct (enzyme, UniProt P00439 1-452, looked up)
chain: MSTAVLENPGLGRKLSDFGQETSYIEDNCNQNGAISLIFSLKEEVGALAKVLRLFEENDVNLTHIESRPSRLKKDEYEFFTHLDKRSLPALTNIIKILRHDIGATVHELSRDKKKDTVPWFPRTIQELDRFANQILSYGAELDADHPGFKDPVYRARRKQFADIAYNYRHGQPIPRVEYMEEEKKTWGTVFKTLKSLYKTHACYEYNHIFPLLEKYCGFHEDNIPQLEDVSQFLQTCTGFRLRPVAGLLSSRDFLGGLAFRVFHCTQYIRHGSKPMYTPEPDICHELLGHVPLFSDRSFAQFSQEIGLASLGAPDEYIEKLATIYWFTVEFGLCKQGDSIKAYGAGLLSSFGELQYCLSEKPKLLPLELEKTAIQNYTVTEFQPLYYVAESFNDAKEKVRNFAATIPRPFSVRYDPYTQRIEVLDNTQQLKILADSINSEIGILCSALQKIK
notes: mature; also called human PAH
dimer:tetramer ratio [4]: ~1 dimer:tetramer ratio (x:1)
dimer:tetramer ratio [5]: ~2 dimer:tetramer ratio (x:1)

B2: Full length untagged rat phenylalanine hydroxylase (PAH), purified by the Shiman affinity method (enzyme, UniProt P04176 2-453, looked up)
chain: AAVVLENGVLSRKLSDFGQETSYIEDNSNQNGAISLIFSLKEEVGALAKVLRLFEENDINLTHIESRPSRLNKDEYEFFTYLDKRTKPVLGSIIKSLRNDIGATVHELSRDKEKNTVPWFPRTIQELDRFANQILSYGAELDADHPGFKDPVYRARRKQFADIAYNYRHGQPIPRVEYTEEEKQTWGTVFRTLKALYKTHACYEHNHIFPLLEKYCGFREDNIPQLEDVSQFLQTCTGFRLRPVAGLLSSRDFLGGLAFRVFHCTQYIRHGSKPMYTPEPDICHELLGHVPLFSDRSFAQFSQEIGLASLGAPDEYIEKLATIYWFTVEFGLCKEGDSIKAYGAGLLSSFGELQYCLSDKPKLLPLELEKTACQEYSVTEFQPLYYVAESFSDAKEKVRTFAATIPRPFSVRYDPYTQRVEVLDNTQQLKILADSINSEVGILCNALQKIKS
notes: mature; Homo-oligomer found predominantly as tetramer, with some dimer; also called rat PAH
binding result [6]: binds

From patent publication US20130004504A1, “METHOD OF MODULATING PHENYLALANINE HYDROXYLASE STRUCTURE AND FUNCTION” (Fox Chase Cancer Center, priority 2011, published 2013)
